Results as given in patent US10780090B2, “Heteroaryl compounds useful as inhibitors of SUMO activating enzyme” (Millennium Pharmaceuticals, Inc., priority 2014, dated 2020).

Target: recombinant human SAE enzyme (Homo sapiens (Human), UniProt Q9UBT2)
Test: SAE HTRF enzyme assay
Assay type: biochemical
Settings: for inhibition at 0.111 µM: read-out: Percent Inhibition
Summary of the method: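 HTRF read-out using Eu-cryptate anti-Flag and allophycocyanin anti-GST antibodies, added with EDTA stop buffer and read after 2 h at 24 °C. The preceding reaction ran 105 min at 24 °C: 0.11 nM recombinant SAE, 0.5 μM ATP, Sumo-Flag, Ubc9-GST, pH 7.5. Values given as single-concentration inhibition or IC50.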

Chain of recombinant human SAE enzyme (Q9UBT2 whole entry): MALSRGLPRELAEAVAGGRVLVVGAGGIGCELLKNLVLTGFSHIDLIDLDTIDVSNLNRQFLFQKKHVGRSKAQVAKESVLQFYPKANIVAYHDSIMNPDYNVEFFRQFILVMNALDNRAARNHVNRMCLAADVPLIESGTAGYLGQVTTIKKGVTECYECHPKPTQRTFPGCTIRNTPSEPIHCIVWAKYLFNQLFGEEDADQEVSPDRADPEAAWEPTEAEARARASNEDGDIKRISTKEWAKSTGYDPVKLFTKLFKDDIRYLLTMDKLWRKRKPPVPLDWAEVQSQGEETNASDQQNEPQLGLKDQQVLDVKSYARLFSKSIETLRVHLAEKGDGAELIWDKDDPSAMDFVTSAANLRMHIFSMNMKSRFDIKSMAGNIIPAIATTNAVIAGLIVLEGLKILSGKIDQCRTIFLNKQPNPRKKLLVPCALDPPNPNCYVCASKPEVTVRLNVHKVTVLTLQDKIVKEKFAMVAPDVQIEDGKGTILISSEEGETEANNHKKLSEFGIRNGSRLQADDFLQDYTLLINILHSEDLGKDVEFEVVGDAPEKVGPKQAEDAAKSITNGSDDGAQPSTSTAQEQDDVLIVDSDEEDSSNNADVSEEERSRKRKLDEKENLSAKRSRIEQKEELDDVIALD
Chain of recombinant human SAE enzyme (Q9UBE0 whole entry partner): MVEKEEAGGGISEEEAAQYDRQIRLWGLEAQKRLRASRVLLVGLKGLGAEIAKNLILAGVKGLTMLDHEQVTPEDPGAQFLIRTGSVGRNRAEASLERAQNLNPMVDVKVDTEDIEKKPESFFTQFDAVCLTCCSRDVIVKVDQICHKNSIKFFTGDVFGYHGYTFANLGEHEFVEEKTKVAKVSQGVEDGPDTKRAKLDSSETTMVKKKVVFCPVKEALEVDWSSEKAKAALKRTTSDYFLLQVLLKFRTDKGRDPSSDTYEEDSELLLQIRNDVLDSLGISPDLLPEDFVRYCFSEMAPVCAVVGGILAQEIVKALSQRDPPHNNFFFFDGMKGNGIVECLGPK

SMILES | Percent Inhibition (Concentration 0.111 μM) | IC50 (class symbols A/B/C) [nM] | inhibition at 0.111 µM (Concentration 0.111 μM) [%] | Percent Inhibition (SAE inhibition at compound concentration 0.111 μM) [%] | IC50 (SAE inhibition, class symbols, legend in nM) [nM]
N[C@H](c1cccc(Cl)n1)c1cc(C(=O)c2cncnc2N[C@@H]2C[C@H](COS(N)(=O)=O)[C@@H](O)C2)sc1Cl (single isomer, unassigned) [I-25b, [(1R,2S,4R)-4-{[5-({4-[(S)-amino(6-chloropyridin-2-yl)methyl]-5-chloro-2-thienyl}carbonyl)pyrimidin-4-yl]amino}-2-hydroxycyclopentyl]methyl sulfamate or [(1R,2S,4R)-4-{[5-({4-[(R)-amino(6-chloropyridin-2-yl)methyl]-5-chloro-2-thienyl}carbonyl)pyrimidin-4-yl]amino}-2-hydroxycyclopentyl]methyl sulfamate] | 99 | < 10 |  |  | 
NS(=O)(=O)OC[C@H]1C[C@@H](Nc2ncncc2C(=O)c2cc(Cc3ccc(Cl)c(Cl)c3)cs2)C[C@@H]1O [I-104, {(1R,2S,4R)-4-[(5-{[4-(3,4-Dichlorobenzyl)-2-thienyl]carbonyl}pyrimidin-4-yl)amino]-2-hydroxycyclopentyl)methyl sulfamate] |  | < 10 | 97 |  | 
C[C@](N)(c1cccc(Br)c1)c1csc(C(=O)c2cncnc2N[C@@H]2C[C@H](COS(N)(=O)=O)[C@@H](O)[C@H]2O)c1 (single isomer, unassigned) [I-27a, [(1R,2R,3S,4R)-4-{[5-({4-[(1S)-1-amino-1-(3-bromophenyl)ethyl]-2-thienyl}carbonyl)pyrimidin-4-yl]amino}-2,3-dihydroxycyclopentyl]methyl sulfamate or [(1R,2R,3S,4R)-4-{[5-({4-[(1R)-1-amino-1-(3-bromophenyl)ethyl]-2-thienyl}carbonyl)pyrimidin-4-yl]amino}-2,3-dihydroxycyclopentyl]methyl sulfamate] | 96 | < 10 |  |  | 
NS(=O)(=O)OC[C@H]1C[C@@H](Nc2ncncc2C(=O)c2cc(CN3CCc4ccccc4C3)cs2)C[C@@H]1O [I-167, {(1R,2S,4R)-4-[(5-{[4-(3,4-dihydroisoquinolin-2(1H)-ylmethyl)-2-thienyl]carbonyl}pyrimidin-4-yl)amino]-2-hydroxycyclopentyl}methyl sulfamate] |  | 10 to 100 | 89 |  | 
NS(=O)(=O)OC[C@H]1C[C@@H](Nc2ncncc2C(=O)c2cc([C@@H]3OCCc4ccc(Br)cc43)cs2)C[C@@H]1O (single isomer, unassigned) [I-268a, [(1R,2S,4R)-4-{[5-({4-[(1R)-7-bromo-3,4-dihydro-1H-isochromen-1-yl]-2-thienyl}carbonyl)pyrimidin-4-yl]amino}-2-hydroxycyclopentyl]methyl sulfamate or [(1R,2S,4R)-4-{[5-({4-[(1S)-7-bromo-3,4-dihydro-1H-isochromen-1-yl]-2-thienyl}carbonyl)pyrimidin-4-yl]amino}-2-hydroxycyclopentyl]methyl sulfamate] | 50 | 100 to 1000 |  |  | 
Cc1nc2n(c1C)CCO[C@@H]2c1cc(C(=O)c2cncnc2N[C@@H]2C[C@H](COS(N)(=O)=O)[C@@H](O)C2)sc1C (single isomer, unassigned) [I-356b, [(1R,2S,4R)-4-{[5-({4-[(8R)-2,3-dimethyl-5,6-dihydro-8H-imidazo[2,1-c][1,4]oxazin-8-yl]-5-methyl-2-thienyl}carbonyl)pyrimidin-4-yl]amino}-2-hydroxycyclopentyl]methyl sulfamate or [(1R,2S,4R)-4-{[5-({4-[(8S)-2,3-dimethyl-5,6-dihydro-8H-imidazo[2,1-c][1,4]oxazin-8-yl]-5-methyl-2-thienyl}carbonyl)pyrimidin-4-yl]amino}-2-hydroxycyclopentyl]methyl sulfamate] |  |  |  | 99 | < 10
NS(=O)(=O)OC[C@H]1C[C@@H](Nc2ncncc2C(=O)c2cc(CN3CCc4sccc4C3)cs2)C[C@@H]1O [I-168, {(1R,2S,4R)-4-[(5-{[4-(6,7-dihydrothieno[3,2-c]pyridin-5(4H)-ylmethyl)-2-thienyl]carbonyl}pyrimidin-4-yl)amino]-2-hydroxycyclopentyl}methyl sulfamate] |  | 10 to 100 | 90 |  | 
NS(=O)(=O)OC[C@H]1C[C@@H](Nc2ncncc2C(=O)c2cc(Cc3cccc(Cl)c3F)cs2)C[C@@H]1O [I-84, {(1R,2S,4R)-4-[(5-{[4-(3-chloro-2-fluorobenzyl)-2-thienyl]carbonyl}pyrimidin-4-yl)amino]-2-hydroxycyclopentyl}methyl sulfamate] |  | < 10 | 98 |  | 
COc1ccc2c(c1)N(Cc1cc(C(=O)c3cncnc3N[C@@H]3C[C@H](COS(N)(=O)=O)[C@@H](O)C3)sc1C)CC2 [I-126, [(1R,2S,4R)-2-hydroxy-4-{[5-({4-[(6-methoxy-2,3-dihydro-1H-indol-1-yl)methyl]-5-methyl-2-thienyl}carbonyl)pyrimidin-4-yl]amino}cyclopentyl]methyl sulfamate] |  | < 10 | 98 |  | 
Cc1sc(C(=O)c2cncnc2N[C@@H]2C[C@H](COS(N)(=O)=O)[C@@H](O)C2)cc1[C@H]1OCCc2ccccc21 [I-256a, [(1R,2S,4R)-4-{[5-({4-[(1S)-3,4-dihydro-1H-isochromen-1-yl]-5-methyl-2-thienyl}carbonyl)pyrimidin-4-yl]amino}-2-hydroxycyclopentyl]methyl sulfamate] |  | < 10 | 94 |  | 
NS(=O)(=O)OC[C@H]1C[C@@H](Nc2ncncc2C(=O)c2cc(Cn3ccnc3)cs2)C[C@@H]1O [I-231, {(1R,2S,4R)-2-hydroxy-4-[(5-{[4-(1H-imidazol-1-ylmethyl)-2-thienyl]carbonyl}pyrimidin-4-yl)amino]cyclopentyl}methyl sulfamate] |  | 100 to 1000 | 28 |  | 
N[C@@H](c1cccc(Br)n1)c1cc(C(=O)c2cncnc2N[C@@H]2C[C@H](COS(N)(=O)=O)[C@@H](O)[C@H]2O)sc1Cl (single isomer, unassigned) [I-10a, [(1R,2R,3S,4R)-4-{[5-({4-[(R)-amino(6-bromopyridin-2-yl)methyl]-5-chloro-2-thienyl}carbonyl)pyrimidin-4-yl]amino}-2,3-dihydroxycyclopentyl]methyl sulfamate or [(1R,2R,3S,4R)-4-{[5-({4-[(S)-amino(6-bromopyridin-2-yl)methyl]-5-chloro-2-thienyl}carbonyl)pyrimidin-4-yl]amino}-2,3-dihydroxycyclopentyl]methyl sulfamate] | 100 | < 10 |  |  | 
CC(c1cccc(Cl)c1)c1csc(C(=O)c2cncnc2N[C@@H]2C[C@H](COS(N)(=O)=O)[C@@H](O)C2)c1 (single isomer, unassigned) [I-117b, [(1R,2S,4R)-4-{[5-({4-[(1S)-1-(3-chlorophenyl)ethyl]-2-thienyl}carbonyl)pyrimidin-4-yl]amino}-2-hydroxycyclopentyl]methyl sulfamate or [(1R,2S,4R)-4-{[5-({4-[(1R)-1-(3-chlorophenyl)ethyl]-2-thienyl}carbonyl)pyrimidin-4-yl]amino}-2-hydroxycyclopentyl]methyl sulfamate] | 97 | < 10 |  |  | 
Cc1sc(C(=O)c2cncnc2N[C@@H]2C[C@H](COS(N)(=O)=O)[C@@H](O)C2)cc1[C@@H]1NCCc2ccc(Cl)cc21 [I-263a, [(1R,2S,4R)-4-[[5-[4-[(1R)-7-chloro-1,2,3,4-tetrahydroisoquinolin-1-yl]-5-methyl-thiophene-2-carbonyl]pyrimidin-4-yl]amino]-2-hydroxy-cyclopentyl]methyl sulfamate] |  | < 10 | 101 |  | 
